In patent US20220370553A1, “PREBIOTIC-INDUCED ANTI-TUMOR IMMUNITY” (Sanford Burnham Prebys Medical Discovery Institute, priority 2019, published 2022):

How the values were obtained:
[1] = test system: N-Ras mutant melanoma tumor cells (MaNRAS1); test: Growth of N-Ras mutant melanoma tumors with prebiotics with or without MEKi; assay type: in vivo, C57BL/6 mice
Protocol: FIG. 7A C57BL/6 mice were injected (s.c.) with NRAS^Q61K mouse melanoma cells (1×10^6) (n=10). The mice were administered with either a control diet alone, or one supplemented with mucin (3%) in drinking water or inulin (15%) in chow starting 14 days prior to tumor inoculation. When tumors reached a volume of 10-20 mm^2, mice were treated with MEKi (PD325901) administered by gavage (10 mg/kg, daily), alone or in combination with inulin or mucin, as indicated. Tumor volume was assessed every 4 days. […] Data are representative of two independent experiments. Graphs show the mean±s.e.m. *P<0.05, **P<0.005, ***P<0.001, ****P<0.0001 by two-way ANOVA with Tukey's correction (A) or one-way ANOVA with Tukey's correction (B-D).
Animals and tumor models. […] Male 6-8-week-old mice were used for all experiments. […] All mice were fed an autoclaved chow diet ad libitum (LabDiet 5K67, Purina Foods). […] Mouse selection for experiments was not formally randomized or blinded. For tumor growth experiments, mice were injected subcutaneously (s.c.) with 1×10^6 tumor cells. Tumor size was measured twice a week for calculation of tumor volume. Tumors were weighed at the time of excision.
Mucin and inulin treatment. For mucin treatment, C57BL/6 mice were subjected to control or water supplemented with 3% mucin (Lee Biosolutions) prior to (14 days) and during tumor inoculation. Water was changed every other day. For inulin treatment, mice were received a diet (TD. 94048, AIN-93M, Purified Diet, ENVIGO) enriched with long-chain inulin by substituting all of sucrose and 5% of corn starch in the control diet or a modified diet (TD. 160256, Modified AIN-93M, Diet w 15% inulin, ENVIGO) prior to (14 days) and during tumor inoculation. Diets were changed 2 times a week.
Experiments were conducted to determine whether prebiotics impacted the effectiveness of MEK inhibitor (MEKi) treatment on tumor growth control and treatment resistance.

[2] = test system: MC-38 mouse colorectal cancer cells; test: Growth of MC-38 colorectal cancer tumors in prebiotic-fed mice; assay type: in vivo, C57BL/6 mice; conditions: 3% mucin in drinking water or 15% inulin diet from two weeks prior to inoculation
Text: (§1) MC-38 mouse colorectal cancer cells (1×10^6) were inoculated, and diets were continued after inoculation.

Yumm1.5 tumors [3] = test: Growth of Yumm1.5 melanoma tumors in prebiotic-fed mice; assay type: in vivo, C57BL/6 mice; conditions: mucin 3% in drinking water or inulin 15% w/w chow from 2 weeks prior to inoculation of 1×10^6 Yumm1.5 cells
Text: (§2) FIG. 2B, Quantification of tumor-infiltrating effector (CD44hi) CD4+, CD8+ and CD45+ T cells from mice treated as in FIG. 2A (n=10). FIG. 2C, Quantification of tumor-infiltrating, IFN-g-producing CD4+ T cells from mice treated as in FIG. 2A (n=10). FIG. 2D, Quantification of tumor-infiltrating total DCs and subsets in mice treated as in FIG. 2A (n=10). FIG. 2E, MFI of MHC class I and MHC class II on DCs from the tumors of mice treated as in FIG. 2A (n=10). […] Graphs show the mean s.e.m. *P<0.05, **P<0.005, ***P<0.001,****P<0.0001 by two-way ANOVA with Tukey's correction (A) and by one-way ANOVA with Tukey's correction (B-E).

Bacteroides spp. = test: Anaerobic fecal cultures with 1% prebiotic, 16S rDNA quantification; assay type: cell-based; conditions: fecal cultures of 12 healthy human subjects, 3-4 days at 37° C.
Protocol: (§3) Fecal samples derived from 12 healthy human subjects were cultivated in the presence or absence of 1% prebiotic. 16S rDNA sequences corresponding to Bifidobacterium, Bacteroides and Akkermansia muciniphila were quantified. Data are representative of three independent experiments. Graphs show the mean±s.e.m. *P<0.05, **P<0.005, ***P<0.001, ****P<0.0001 by one-way ANOVA with Tukey's correction.
(§4) Anaerobic fecal cultures. […] Anaerobic cultures (9% H2, 81% N2) were grown statically for 3-4 days at 37° C. and grown to approximate saturation.
(§5) Chemically-defined medium (CDM). CDM contains 50 mM HEPES, 2.2 mM KH2PO4, 10 mM Na2HPO4, 60 mM NaHCO3, 4 mM of each amino acid, except leucine (15 mM), 10 mL ATCC, Trace Mineral Supplement. CDM contained nucleoside bases (100 mg/L), inosine, xanthine, adenine, guanine, cytosine, thymidine and uracil (400 mg/L). CDM contained choline (100 mg/L), ascorbic acid (500 mg/L), lipoic acid (2 mg/L), hemin (1.2 mg/L) and myo-inositol (400 mg/L). Resazurin (1 mg/L) was added to visually monitor dissolved oxygen. The pH of the media was adjusted to 7.4.
(§6) Fecal samples derived from 12 healthy, vegetarian human subjects were cultivated in a chemically-defined medium the presence or absence of 1% prebiotic. Anaerobic cultures (9% H2, 81% N2) were grown statically for 3-4 days at 37° C. and grown to approximate saturation.

gut microbiota = assay type: in vivo, C57BL/6 mice
Protocol: Bacterial DNA extraction and 16S library preparation. […] Mouse fecal pellets were frozen on dry ice, and stored at −80° C. Bacterial DNA was extracted using the QIAmp Fast DNA Stool Mini Kit (Qiagen). To ensure efficient cell lysis, a 5-min bead-beating step using a Mini-Beadbeater-16 was included (Biospec Products, OK, USA). Library preparation for the Illumina MiSeq platform was performed by amplification of the V3-V4 region of the bacterial 16S ribosomal DNA gene using
C. Adapter and barcode sequences for dual indices were used as described by Illumina. PCR clean up steps were performed with QIAquick 96-PCR Clean up kit (Qiagen, Germany), and library quantification was performed using a KAPA Library Quantification Kit for Illumina platforms (KAPA Biosystems, MA, USA). An Experion Automated Gel Electrophoresis System (Bio-Rad, CA, USA) was used to measure the DNA concentration and purity of the pooled libraries. The 16S libraries were sequenced at Novagene (Beijing, China) and the SBP sequencing Core.
16S sequencing data processing. The original FASTQ files from Illumina 250 basepair paired-end sequencing of the samples were processed using a novel 16S amplicon sequencing pipeline HiMap (http://github.com/taolonglab/himap; BioRxiv 565572). The output of HiMap is Operational Strain Unit (OSU) which contains one or more bacterial strains that best match the 16S sequence and cannot be further distinguished. The percentage similarity between the 16S sequence and the aligned region of 16S rRNA genes of the strains in the OSU is indicated. OSUs mapped to the same strains are grouped together (adding read counts) if percentage similarities are within 3%. Read counts are converted into relative abundance as described in HiMap. Log 10-transformed relative abundances were used for comparisons between samples under different experimental conditions.

Yumm1.5 tumors [4] = test: Flow cytometry of tumor-infiltrating immune cells in Yumm1.5 tumors; assay type: in vivo, C57BL/6 mice; conditions: 20 days following tumor inoculation
Text: as §2
(§7) Tumor digestion. Tumors were excised, minced, and digested with 1 mg/ml collagenase D (Roche) and 100 μg/ml DNase I (Sigma) at 37° C. for 1 h. Digests were then passed through a 70-μm cell strainer to generate a single-cell suspension. The cells were washed twice with PBS containing 2 mM EDTA, and then stained for flow cytometry.
(§8) Flow cytometry. Tumor-derived single-cell suspensions were washed twice with FACS staining buffer, fixed for 15 min with 1% formaldehyde in PBS, washed twice, and resuspended in FACS staining buffer. For intracellular cytokine staining, cells were resuspended in complete RPMI-1640 (containing 10 mM HEPES, 1% non-essential amino acids and L-glutamine, 1 mM sodium pyruvate, 10% heat-inactivated fetal bovine serum (FBS), and antibiotics) supplemented with 50 U/mL IL-2 (NCI), […] brefeldin A (BFA, Sigma), and incubated with phorbol myristate acetate (10 ng/ml) and ionomycin (0.5 μg/ml) at 37° C. The cells were then fixed and permeabilized using a Cytofix/Cytoperm Kit (BD Biosciences) before staining. Antibodies to the following proteins were used: CD45.2 (104), CD8a (53-6.7), CD4 (GK1.5), CD44 (IM7), TNF-α (MP6-XT22), IFN-γ (XMG1.2), CD11c (N418), CD11b (M1/70), MHC class II (M5/114.15.2), PDCA (129c1), and B220 (RA3-6B2) from BioLegend, and antibodies to IL-2 (JES6-5H4) and MHC class I (AF6-88.5.5.3) from eBioscience. All data were collected on an LSRFortessa (BD Biosciences) and analyzed using FlowJo Software (Tree Star).

[5] = test system: MC-38 mouse colorectal cancer cells; test: Flow cytometry of tumor-infiltrating immune cells in MC-38 tumors; assay type: in vivo, C57BL/6 mice
Protocol: as §7, §8, §1

[6] = test system: intestinal epithelial cells; test: qRT-PCR of inflammatory mediators in intestinal epithelial cells in vivo; design: species or system C57BL/6 mice; conditions: inulin 15% in chow, naïve mice, 2 weeks
Text: FIG. 15 illustrates effects of mucin and inulin on expression of inflammatory mediators by intestinal epithelial cells in vivo. qRT-PCR data are shown for mRNA levels of the indicated inflammatory mediators in intestinal epithelial cells from mucin or inulin-treated mice (n=4). Data are representative of two independent experiments. Graphs show the mean s.e.m. *P<0.05, **P<0.005, one-way ANOVA with Tukey's correction.
Isolation of intestinal epithelial cells. A 10 cm section of mouse small intestine was opened longitudinally, minced, washed in 150 mM NaCl containing 1 mM DTT, and then resuspended in dissociation buffer (130 mM NaCl, 10 mM EDTA, 10 mM Hepes [pH 7.4], 10% FCS, and 1 mM DTT). The sections were incubated at 37° C. for 30 min with vigorous shaking to release the epithelial cells from the lamina propria. The epithelial cell suspension was then carefully aspirated, centrifuged, and washed in ice-cold PBS.
The effect of mucin and inulin on intestinal epithelial cells was evaluated in vivo. To this end, mucin (3% in drinking water) or inulin (15% in chow) were administered to naïve C57BL/6 mice for 2 weeks. Intestinal epithelial cells were isolated from small intestine and were assessed for the level of select cytokines and chemokines that are implicated in the activation of the immune response and anti-tumor immunity.

CD8+ T cells = test: qRT-PCR of cytokine and chemokine mRNAs in CD8+ T cells in vitro; assay type: cell-based, mice; conditions: 0.05 or 0.5 mg/ml in vitro
Text: Data are representative of two independent experiments. Graphs show the mean±s.e.m. *P<0.05, **P<0.005, ***P<0.001, ****P<0.0001 one-way ANOVA with Tukey's correction.
RNA extraction and qRT-PCR analyses. Total RNA was extracted from tumor samples individually using the RNeasy Fibrous Tissue Midi kit (QIAGEN) or cells treated as indicated using High Capacity Reverse Transcriptase kits (Invitrogen) according to the manufacturer's protocol. Purity and concentration of extracted RNA were checked and quantified by reading at 260 and 280 nm in a NanoDrop spectrophotometer (Thermo Fisher). The qRT-PCR analyses were performed using Syber Green RT-PCR kits (Invitrogen) on a Bio-Rad CFX Connect Real-Time system. Expression levels normalized to 18S or Tubb5 controls.

Bifidobacterium spp. = test: Anaerobic fecal cultures with 1% prebiotic, 16S rDNA quantification; assay type: cell-based, human; conditions: in two of these cultures
Protocol: as §3, §4, §5, §6

Compound	N-Ras mutant tumor growth ([1]; MEKi (PD325901) 10 mg/kg daily by gavage, alone or with prebiotic)	growth of colon cancer MC-38 tumors [2]	melanoma tumor growth (Yumm1.5 tumors [3])	relative abundance of Bacteroides spp. (Bacteroides spp.)	phylotype group related to Parasutterella excrementihominis (gut microbiota; in the absence of MEKi)	taxa increased in relative abundance (gut microbiota; in the absence of MEKi)	Akkermansia muciniphila (gut microbiota; inulin+MEKi treated mice compared to inulin alone)	control of N-Ras mutant tumors ([1]; in the absence of MEKi, mucin 3% in water or inulin 15% in chow)	intrinsic resistance of MaN-Ras melanoma cells to MEKi ([1]; inulin-fed mice treated with MEKi)	MHC class I and MHC class II on tumor-resident DCs (Yumm1.5 tumors [4])	dendritic cell subsets including pDCs and CD8a+ conventional DCs in tumors (Yumm1.5 tumors [4])	effector (CD44hi) CD4+ and CD8+ T cells, and CD45+ cells in tumors (Yumm1.5 tumors [4]; compared to control mice)	CD4+ or CD8+ T cells, CD45+ cells, cytokine production, DCs and DC subsets in tumors [5]	anti-tumor immune responses, MHC class II and I expression on DCs [5]	levels of NOD2, IL-6 and CXCL2 mRNA in intestinal epithelial cells [6]	expression of multiple pro-inflammatory mediators in CD8+ T cells (CD8+ T cells)	Bifidobacterium spp. (Bifidobacterium spp.)
O=C(NOC[C@H](O)CO)c1ccc(F)c(F)c1Nc1ccc(I)cc1F [MEKi, PD325901, reference compound]	effectively controlled tumor growth																
inulin		attenuated	attenuated	increased	notable increase	primarily increased the relative abundance of taxa mapped in or near Clostridium cluster XIVa	robustly enriched	modestly controlled	delayed	higher levels	increased	enrichment	No differences	enhanced	increased	increased expression	strong increase
